According to patent US20230098646A1, “NEUROMODULATION DEVICES AND RELATED METHODS” (Massachusetts Institute of Technology, priority 2021, published 2023):
Where a SMILES comes first, the peptide text is derived from it. The star is where a group is joined. Cbz = O=C(OCc1ccccc1)*

Legend:
C2C12 cells = assay: Extract exposure test (ISO), cell viability by ATP quantitation (CellTiter-Glo); assay type: cell-based; details: 40 um MG-132, positive control, vs negative control (p<0.05)
Procedure: An extract exposure test following ISO norms was performed to evaluate the toxicity of the neuroprosthesis material. 0.2 gm of material were added to 1 mL of DMEM culture medium and stirred at 37° C. for 24 hours or 7 days to create the extract samples. 100 uL of fetal bovine serum were added to 900 uL aliquots of the samples and used to treat C2C12 cells plated in a 96 well plate in triplicate. A negative control of untreated media and positive control of media containing 40 um MG-132, a small molecule proteasome inhibitor, were also performed. At 24 and 72 hours, cell viability was measured through quantitation of ATP using CellTiter-Glo (Promega) using a Tecan M1000Pro.

[1] = test system: lower esophageal sphincter; assay: Glucagon infusion through the neuroprosthesis microfluidic channel into the lower esophageal sphincter, intraluminal manometry; assay type: in vivo, swine
Procedure: The neuroprosthesis' distal tip was implanted in the lower esophageal sphincter and glucagon was infused through the microfluidic channel. This chemical stimulation yielded relaxation of the sphincter within 10-20 s. […] Muscle tone returned within 1.5 minutes whereupon repeated infusions led to relaxation. Injection of saline produced no measurable effect and served as negative a control.
Following validation of the safety, efficacy, and biocompatibility, the prosthesis was implanted Yorkshire swine (n=2, 94 kg & 70 kg). The optimized electrical stimulation parameters were programmed into the controller. A pump primed the microfluidic channel and injected 5mg/mL glucagon per neurochemical stimulus.
To characterize and validate the neuroprosthesis' ability to sense and create artificial peristalsis, a fluoroscopic pellet study was conducted. Barium sulfate (Bracco E-Z-HD Barium Sulfate for Suspension (98% w/w), Patterson Veterinary) was mixed with a sodium alginate solution (Sigma) in a 50:50 volume by weight ratio. After 10 minutes of sonication at 30 deg C., the suspension was pipetted into a custom silicone mold sized for a triple zero capsule. After 24 hours, these pellets were hydrated with a 2M CaCl2 solution for at least 2 hours and rinsed with PBS for 72 hours. They were then placed in the esophagus using the endoscope. Stimulation and sensing were performed by the neuroprosthesis and the pellet was radiographically visualized using fluoroscopy. Further, intraluminal manometry studies were performed (n=4, swine) to characterize changes in esophageal reflexes and pressures following tool-based tissue manipulation and neuroprosthesis implantation as well as capture artificial peristalsis created by the neuroprosthesis. An intraluminal manometer (Endoflip, Medtronic) was inserted into the middle and lower esophagus using an overtube to profile distensibility, pressure, pattern of motility and minimal diameter of the esophagus. […] Electromyography was recorded from the electrodes during stimulation and rest periods. […]

Row | Compound | cell viability (C2C12 cells) | time to relaxation of the sphincter ([1]; after glucagon infusion through microfluidic channel, distal tip in lower esophageal sphincter) [s] | time until muscle tone returned ([1]; after glucagon infusion, repeated infusions again led to relaxation) [min] | relaxation of the LES on glucagon infusion ([1]; microfluidic infusion by the neuroprosthesis, 5mg/mL glucagon per stimulus, tonic LES at rest)
1 | CC(C)C[C@@H](C=O)NC(=O)[C@H](CC(C)C)NC(=O)[C@H](CC(C)C)NC(=O)OCc1ccccc1 [MG-132] (Cbz-Leu-Leu-Leu-aldehyde) | significantly decreased cell viability | – | – | –
2 | glucagon | – | 10 to 20 | ≤ 1.5 | yielded relaxation of this LES
